# Like-named read-outs stand apart in the source and are kept apart here.
# Tests used:
# EGFR WT = EGFR WT (Homo sapiens, UniProt P00533); assay: Kinase assay (mobility shift), EGFR wildtype; assay type: biochemical; conditions: top concentration 300 nM
# Experimental: (§1) Test 1 Kinase Assay for EGFR Del19/T790M/C797S and EGFR Wildtype
# (§2) Enzyme reaction protocol are as follows:
# (§3) 1. Preparing 1* Kinase buffer as followed.
# (§4) 2. Preparing Compound Concentration Gradient: Compounds were tested at a concentration of 300 nM, diluted to 100-fold final concentration in 100% DMSO solution in 96-well plates, and compounds were diluted 3 times with Precision, 10 concentrations. Each concentration of the compound was then further diluted to a 5-fold final concentration of the intermediate dilution solution using 1* Kinase buffer.
# (§5) 3.5 μL of each of the prepared intermediate dilution compounds was separately added to the compound wells of the 384-well plate, and each concentration was tested for duplicate wells; 5 μL of 5% DMSO was added to the negative control wells and the positive control wells, respectively.
# (§6) 4. 2.5-fold final concentration of the kinase solution was prepared using 1*Kinase buffer.
# (§7) 5. Add 10 μL of 2.5-fold final concentration of kinase solution to the compound well and positive control well; add 10 μL of 1*Kinase buffer to the negative control well.
# (§8) 6. Centrifuge at 1000 rpm for 30 seconds, shake the reaction plate and incubate for 10 minutes at room temperature.
# (§9) 7. A mixed solution of 2.5 times the final concentration of ATP and Kinase substrate (5-FAM-EEPLYWSFPAKKK-CONH2) was prepared using 1*Kinase buffer.
# (§10) 8. 10 μL of a 2.5-fold final concentration of a mixed solution of ATP and a substrate was added to initiate the reaction.
# (§11) 9. Centrifuge the 384-well plate at 1000 rpm for 30 seconds, mix by shaking, and incubate at room temperature for the corresponding time.
# (§12) 10. Add 30 μL of the stop solution to stop the kinase reaction, centrifuge at 1000 rpm for 30 seconds, and mix by shaking.
# (§13) 11. Read the conversion rate with Caliper EZ Reader.
# (§14) Convert conversion values to inhibition values:
# (§15) Percent inhibition 32 (max-conversion)/(max-min)*100.
# (§16) “max” stands for the mean value of the positive control well ratio; “min” stands for the mean value of the negative control well.
# (§17) Fit the data in log(inhibitor) vs. response Variable slope of GraphPad Prism 5 to obtain IC50 values.
# (§18) Equation used is: Y=Bottom+(Top-Bottom)/(1+(IC50/X)^HillSlope)
# EGFR L858R/T790M/C797S = EGFR L858R/T790M/C797S (Homo sapiens, UniProt P00533, C797S/L858R/T790M); assay: Kinase assay (mobility shift), EGFR L858R/T790M/C797S; assay type: biochemical
# Experimental: [Worded in the source for another variant; this variant is reported under the same test.] as §1, §2, §3, §4, §5, §6, §7, §8, §9, §10, §11, §12, §13, §14, §15, §16, §17, §18
# Ba/F3-Del19/T790M/C797S = Ba/F3-Del19/T790M/C797S (Homo sapiens, UniProt P00533, T790M/C797S, cells depend on it, form not given); assay: Ba/F3-Del19/T790M/C797S cells proliferation assay (CellTiter Glo); assay type: cell-based; conditions: cell proliferation, 72 h, read-out: Ba/F3-Del19/T790M/C797S IC50
# Experimental: (§19) a) The medium was preheated in a 37°0 C. water bath in advance.
# (§20) b) Remove the cryogenic vials from the liquid nitrogen tank, quickly put it into a 37° C. water bath, and completely melt it in 1 min.
# (§21) c) Transfer the cell suspension to a 15 mL centrifuge tube containing 8 mL medium, centrifuge 1000 rpm, 5 min.
# (§22) d) Discard the supernatant, resuspend the cells in 1 mL medium, and transfer to a 75 cm^2 flask containing 15 mL medium, culture the cells in an incubator at 37° C., 5% CO2.
# (§23) a) The medium was preheated in a 37° C. water bath in advance.
# (§24) b) Collect cell to a 15 mL centrifuged tube, centrifuge at 1000 rpm for 5 min. Discard the supernatant, count, and make the cell density at 1×10^4 cells/mL, then place it in a 37° C., 5% CO2 incubator.
# (§25) a) The test compound (20 mM stock solution) was diluted to 200uM with 100% DMSO as starting concentration then 3-fold serial diluted with “9+0” concentrations. in a 96-well dilution plate (Cat # P-05525, Labcyte);
# (§26) b) The above compound solution was diluted 1:20 times with culture medium to prepare a 10 fold working solution;
# (§27) a) Take cells in log phase growth, centrifuge at 1000 rpm for 5 min, then resuspend the cells with culture medium, then count cells;
# (§28) b) Cells were seeded to 96-well cell culture plate with density at 2000 cells/well;
# (§29) a) Compounds prepared at step 2 were added to cell plate with 15 μL per well, the final concentrations were 1000,333, 111.1, 37,12.3, 4.1, 1.4, 0.5, 0.2 and 0 nM, and the final concentration of DMSO was 0.5%. The blank control well was a culture medium (0.5% DMSO);
# (§30) b) The cells were incubated for an additional 72 h in the incubator.
# (§31) a) Remove the 96-well cell culture plate and add 50 μl of CTG reagent (CellTiter Glo kit, promega, Cat # G7573).
# (§32) b) Plate was shaked for 2 min and then let it cool for 10 min at room temperature.
# (§33) c) The Luminescence signal value was read using a PerkinElmer reader. Experimental data analysis
# (§34) Data were analyzed using GraphPad Prism 6.0 software to obtain a fitted curve of compound activity.
# (§35) Fit the Compound IC50 from non-linear regression equation:
# (§36) Y=Bottom+(Top-Bottom)/(1+10((LogIC50-X)×Hill Slope));
# (§37) X: The log of the concentration of the compound; Y: Luminescence value.
# (§38) The cells proliferation assay results are expressed with IC50, shown as Table 2.
# Ba/F3-L858R/T790M/C797S = Ba/F3-L858R/T790M/C797S (Homo sapiens, UniProt P00533, T790M/C797S/L858R, cells depend on it); assay: Ba/F3-L858R/T790M/C797S cells proliferation assay (CellTiter Glo); assay type: cell-based; conditions: cell proliferation, 72 h, read-out: Ba/F3-L858R/T790M/C797S IC50
# Experimental: as §19, §20, §21, §22, §23, §24, §25, §26, §27, §28, §29, §30, §31, §32, §33, §34, §35, §36, §37, §38
# A431 (WT) = assay: A431 cells proliferation assay (CellTiter Glo); assay type: cell-based; conditions: Homo sapiens, A-431; cell proliferation, 72 h
# Experimental: Test 4 A431 Cells Proliferation Assay
# DMEM and 10% FBS and 1% PS.
# as §23, §20, §21, §22, §24
# a) The test compound (20 mM stock solution) was diluted to 2 mM with 100% DMSO as starting concentration then 3-fold serial diluted with “9+0” concentrations. in a 96-well dilution plate (Cat # P-05525, Labcyte);
# b) The above compound solution was diluted 1:40 times with culture medium to prepare a 5 fold working solution;
# as §27
# b) Cells were seeded to 96-well cell culture plate with density at 5000 cells/well;
# a) Compounds prepared at step 2 were added to cell plate with 40 μL per well, the final concentrations were 10000, 3333,1111.1, 370.4, 123.5, 41.2, 13.7, 4.6, 1.5 and 0 nM, and the final concentration of DMSO was 0.5%. The blank control well was a culture medium (0.5% DMSO);
# as §30
# a) Remove the 96-well cell culture plate and add 60 μl of CTG reagent (CellTiter Glo kit, promega, Cat # G7573).
# as §32
# c) The Luminescence signal value was read using a PerkinElmer reader.
# Experimental Data Analysis
# as §34, §35
# Y=Bottom+(Top-Bottom)/(1+10((LogIC50-X)×HillSlope));
# as §37
# The cells proliferation assay results are expressed with IC50, shown as Table 3.
# [1] = Pharmacokinetic assay, oral administration; assay type: in vivo; conditions: rat, male SD rats, p.o. 5 mg/kg, plasma, formulation differs per row
# Experimental: Test 5 Pharmacokinetic Assay
# Male SD rats, oral administration (intragastric administration), 3 in each group. Animals administered by gavage were fasted overnight before the experiment, and the fasting time was from at least 12 hours before administration to 4 hours after administration. The blood was collected using the orbital vein. Time of blood collection by oral administration: 15 min, 30 min, 1 h, 2 h, 4 h, 7 h, 24 h. The blood collection volume was 300 uL, and after anticoagulation with 2.0% EDTA, the blood was centrifuged at 4000 rpm for 5 min, and the blood plasma was taken for about 100 uL, and placed in −20° C. for examination. The plasma sample was analyzed using liquid chromatography tandem mass spectrometry (LC-MS/MS). Plasma concentration-time data for individual animals were analyzed using WinNonlin (V4.1, Pharsight) software with a non-compartmental model and the pharmacokinetic parameters of the test compounds were calculated.
# Sequence of Ba/F3-Del19/T790M/C797S (P00533 with tags, fused parts or gaps DEL746-750/T790M/C797S, form open): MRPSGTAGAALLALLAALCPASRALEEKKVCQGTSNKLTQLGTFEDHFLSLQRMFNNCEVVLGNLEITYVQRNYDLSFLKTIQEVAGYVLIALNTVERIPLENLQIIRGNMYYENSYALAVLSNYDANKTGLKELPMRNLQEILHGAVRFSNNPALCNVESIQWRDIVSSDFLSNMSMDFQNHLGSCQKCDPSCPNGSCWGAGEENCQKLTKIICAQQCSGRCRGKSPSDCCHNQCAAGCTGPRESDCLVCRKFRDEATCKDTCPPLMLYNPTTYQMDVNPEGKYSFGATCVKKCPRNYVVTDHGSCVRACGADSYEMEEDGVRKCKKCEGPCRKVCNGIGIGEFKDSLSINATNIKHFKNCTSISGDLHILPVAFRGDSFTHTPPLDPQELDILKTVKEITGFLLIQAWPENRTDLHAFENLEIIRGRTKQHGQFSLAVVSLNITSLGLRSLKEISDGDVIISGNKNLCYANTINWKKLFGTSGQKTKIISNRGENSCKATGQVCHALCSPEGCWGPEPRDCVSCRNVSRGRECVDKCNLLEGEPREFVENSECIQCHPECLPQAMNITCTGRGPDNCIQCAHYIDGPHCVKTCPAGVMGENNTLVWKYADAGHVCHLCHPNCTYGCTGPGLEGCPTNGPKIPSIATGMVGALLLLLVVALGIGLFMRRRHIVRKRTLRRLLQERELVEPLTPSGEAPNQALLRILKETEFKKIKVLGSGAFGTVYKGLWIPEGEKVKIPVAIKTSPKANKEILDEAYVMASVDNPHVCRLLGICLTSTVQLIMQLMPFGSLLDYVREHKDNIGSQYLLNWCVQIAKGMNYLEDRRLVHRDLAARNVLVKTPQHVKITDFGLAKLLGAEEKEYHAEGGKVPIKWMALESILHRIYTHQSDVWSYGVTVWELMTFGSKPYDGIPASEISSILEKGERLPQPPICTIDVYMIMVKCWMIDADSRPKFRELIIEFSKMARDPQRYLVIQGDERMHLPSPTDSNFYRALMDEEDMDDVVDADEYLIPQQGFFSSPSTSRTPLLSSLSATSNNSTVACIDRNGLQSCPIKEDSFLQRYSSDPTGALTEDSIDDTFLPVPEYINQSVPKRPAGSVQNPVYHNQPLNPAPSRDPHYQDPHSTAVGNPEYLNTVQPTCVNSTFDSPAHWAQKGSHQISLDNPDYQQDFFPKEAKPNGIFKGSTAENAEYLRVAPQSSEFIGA
# Sequence of EGFR L858R/T790M/C797S (P00533 25-1210 T790M/C797S/L858R): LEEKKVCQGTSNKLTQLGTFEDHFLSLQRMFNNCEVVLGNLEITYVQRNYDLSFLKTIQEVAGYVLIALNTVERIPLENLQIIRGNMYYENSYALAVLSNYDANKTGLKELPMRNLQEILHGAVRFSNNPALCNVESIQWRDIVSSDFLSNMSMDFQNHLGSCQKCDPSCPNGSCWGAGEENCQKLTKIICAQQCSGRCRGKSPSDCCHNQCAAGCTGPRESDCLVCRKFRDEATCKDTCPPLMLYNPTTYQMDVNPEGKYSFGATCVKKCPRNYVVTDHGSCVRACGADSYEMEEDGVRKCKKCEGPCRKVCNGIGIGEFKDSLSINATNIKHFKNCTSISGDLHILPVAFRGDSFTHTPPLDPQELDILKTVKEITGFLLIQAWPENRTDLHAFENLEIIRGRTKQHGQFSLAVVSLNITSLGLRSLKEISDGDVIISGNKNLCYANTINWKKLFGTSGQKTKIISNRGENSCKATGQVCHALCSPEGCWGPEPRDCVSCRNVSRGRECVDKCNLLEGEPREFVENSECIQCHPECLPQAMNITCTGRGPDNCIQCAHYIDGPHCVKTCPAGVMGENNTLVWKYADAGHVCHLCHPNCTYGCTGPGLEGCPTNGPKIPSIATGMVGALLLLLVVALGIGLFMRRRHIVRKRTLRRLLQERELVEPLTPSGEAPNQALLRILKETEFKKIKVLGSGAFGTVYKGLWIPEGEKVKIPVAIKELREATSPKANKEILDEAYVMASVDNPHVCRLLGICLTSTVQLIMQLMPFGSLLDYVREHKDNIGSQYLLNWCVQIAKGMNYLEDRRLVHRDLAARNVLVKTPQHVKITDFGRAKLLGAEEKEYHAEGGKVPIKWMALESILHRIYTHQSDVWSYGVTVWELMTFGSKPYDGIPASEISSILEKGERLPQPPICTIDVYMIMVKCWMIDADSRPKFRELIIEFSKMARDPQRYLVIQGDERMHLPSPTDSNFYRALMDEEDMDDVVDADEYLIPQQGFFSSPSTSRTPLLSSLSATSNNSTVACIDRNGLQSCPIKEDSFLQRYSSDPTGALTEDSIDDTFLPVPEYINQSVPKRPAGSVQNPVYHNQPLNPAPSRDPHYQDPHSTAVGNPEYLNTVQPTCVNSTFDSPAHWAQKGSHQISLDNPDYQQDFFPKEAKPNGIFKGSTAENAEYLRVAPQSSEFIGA
# Sequence of Ba/F3-L858R/T790M/C797S (P00533 whole entry T790M/C797S/L858R): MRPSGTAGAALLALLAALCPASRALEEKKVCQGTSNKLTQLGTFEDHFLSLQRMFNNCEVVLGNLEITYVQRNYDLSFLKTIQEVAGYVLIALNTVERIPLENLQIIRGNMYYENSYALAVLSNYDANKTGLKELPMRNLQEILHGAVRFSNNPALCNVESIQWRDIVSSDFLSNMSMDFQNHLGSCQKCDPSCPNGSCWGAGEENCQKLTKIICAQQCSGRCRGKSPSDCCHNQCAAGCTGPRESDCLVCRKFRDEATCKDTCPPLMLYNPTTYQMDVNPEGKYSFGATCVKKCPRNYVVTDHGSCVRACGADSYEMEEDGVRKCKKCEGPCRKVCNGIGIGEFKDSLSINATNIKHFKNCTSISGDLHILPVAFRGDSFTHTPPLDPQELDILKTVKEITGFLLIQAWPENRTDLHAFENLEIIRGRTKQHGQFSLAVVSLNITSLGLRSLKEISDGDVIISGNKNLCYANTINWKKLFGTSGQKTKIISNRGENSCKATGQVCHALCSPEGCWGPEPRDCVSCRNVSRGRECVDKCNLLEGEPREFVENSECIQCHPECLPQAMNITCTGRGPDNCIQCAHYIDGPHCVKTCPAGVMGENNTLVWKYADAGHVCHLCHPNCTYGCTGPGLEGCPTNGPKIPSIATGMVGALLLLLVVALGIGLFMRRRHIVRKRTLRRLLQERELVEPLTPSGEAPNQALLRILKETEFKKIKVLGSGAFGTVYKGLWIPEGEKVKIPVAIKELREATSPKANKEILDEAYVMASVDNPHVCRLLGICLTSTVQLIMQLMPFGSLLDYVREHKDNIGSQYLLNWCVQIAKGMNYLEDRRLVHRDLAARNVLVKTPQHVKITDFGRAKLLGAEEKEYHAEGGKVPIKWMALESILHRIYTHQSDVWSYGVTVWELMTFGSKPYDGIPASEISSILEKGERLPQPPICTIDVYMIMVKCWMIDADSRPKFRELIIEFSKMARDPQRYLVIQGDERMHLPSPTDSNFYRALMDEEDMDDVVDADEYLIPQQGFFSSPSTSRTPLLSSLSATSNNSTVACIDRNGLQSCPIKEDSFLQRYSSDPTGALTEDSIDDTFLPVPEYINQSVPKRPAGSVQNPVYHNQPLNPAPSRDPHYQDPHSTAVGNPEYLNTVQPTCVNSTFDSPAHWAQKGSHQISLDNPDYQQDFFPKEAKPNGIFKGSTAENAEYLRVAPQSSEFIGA
# Sequence of EGFR WT (P00533 25-1210): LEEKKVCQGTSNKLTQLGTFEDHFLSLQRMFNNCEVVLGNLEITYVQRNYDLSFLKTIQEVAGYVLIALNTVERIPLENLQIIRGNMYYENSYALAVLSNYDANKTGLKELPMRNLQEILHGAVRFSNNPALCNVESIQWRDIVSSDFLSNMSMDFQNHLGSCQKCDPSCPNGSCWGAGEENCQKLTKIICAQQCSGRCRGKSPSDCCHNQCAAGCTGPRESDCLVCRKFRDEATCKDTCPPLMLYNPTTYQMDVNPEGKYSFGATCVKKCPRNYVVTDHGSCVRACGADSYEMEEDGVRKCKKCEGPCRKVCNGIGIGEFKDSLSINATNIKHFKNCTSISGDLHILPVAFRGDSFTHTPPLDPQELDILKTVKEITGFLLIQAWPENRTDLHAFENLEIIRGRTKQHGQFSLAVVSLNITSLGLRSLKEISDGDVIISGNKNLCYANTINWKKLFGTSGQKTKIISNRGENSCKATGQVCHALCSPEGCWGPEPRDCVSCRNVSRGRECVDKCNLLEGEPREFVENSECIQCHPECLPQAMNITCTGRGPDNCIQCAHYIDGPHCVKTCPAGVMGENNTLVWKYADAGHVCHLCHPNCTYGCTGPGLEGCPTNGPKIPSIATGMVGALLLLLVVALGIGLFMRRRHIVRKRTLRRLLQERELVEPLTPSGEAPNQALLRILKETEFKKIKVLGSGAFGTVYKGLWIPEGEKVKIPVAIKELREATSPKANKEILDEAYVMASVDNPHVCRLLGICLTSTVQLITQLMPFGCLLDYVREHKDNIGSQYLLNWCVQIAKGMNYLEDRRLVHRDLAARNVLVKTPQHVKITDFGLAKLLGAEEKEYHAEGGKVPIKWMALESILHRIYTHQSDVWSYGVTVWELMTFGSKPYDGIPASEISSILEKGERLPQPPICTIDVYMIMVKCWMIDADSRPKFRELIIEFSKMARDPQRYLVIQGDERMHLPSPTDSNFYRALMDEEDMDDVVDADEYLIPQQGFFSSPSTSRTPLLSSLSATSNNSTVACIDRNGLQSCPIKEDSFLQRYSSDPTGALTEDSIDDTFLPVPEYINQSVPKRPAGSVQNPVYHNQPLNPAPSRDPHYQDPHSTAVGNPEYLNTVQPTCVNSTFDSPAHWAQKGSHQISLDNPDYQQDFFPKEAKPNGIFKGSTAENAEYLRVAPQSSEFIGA
IC50 (EGFR WT),IC50 (EGFR L858R/T790M/C797S; class symbols),GI50 (Ba/F3-Del19/T790M/C797S; class symbols),GI50 (Ba/F3-L858R/T790M/C797S; class symbols),IC50 (EGFR L858R/T790M/C797S; numeric values),SMILES,IC50 (A431 (WT)),GI50 (Ba/F3-Del19/T790M/C797S; numeric values),AUC(0-t) [1],Cmax [1],Tmax [1],half-life [1],GI50 (Ba/F3-L858R/T790M/C797S; numeric values)
0.066 µM,0.002 to 0.01 µM,0.01 to 0.05 µM,0.01 to 0.05 µM,–,"CNC1CCC2(CC1)CN(c1ccc(Nc3ncc(Cl)c(Nc4ccccc4P(C)(C)=O)n3)cc1C)C2 [Example 2, (2-((5-chloro-2-((3-methyl-4-(7-(methylamino)-2-azaspiro[3.5]nonan-2-yl)phenyl)amino)pyrimidin-4-yl)amino)phenyl)dimethylphosphine oxide]",–,–,–,–,–,–,–
0.101 µM,–,> 0.05 µM,> 0.05 µM,0.018 µM,"Cc1cc(Nc2ncc(F)c(Nc3ccccc3P(C)(C)=O)n2)ccc1N1CC2(CC(N)C2)C1 [Example 24, (2-((2-((4-(6-amino-2-azaspiro[3.3]heptan-2-yl)-3-methylphenyl)amino)-5-fluoropyrimidin-4-yl)amino)phenyl)dimethylphosphine oxide]",–,–,–,–,–,–,–
0.028 µM,–,–,–,0.0015 µM,"Cc1cc(Nc2ncc(Cl)c(Nc3ccccc3P(C)(C)=O)n2)ccc1N1CC2(CC(N)C2)C1 [Example 25, (2-((2-((4-(6-amino-2-azaspiro[3.3]heptan-2-yl)-3-methylphenyl)amino)-5-chloropyrimidin-4-yl)amino)phenyl)dimethylphosphine oxide]",–,0.018 µM,–,–,–,–,0.0242 µM

# Further lines, the molecule ahead of its results:
SMILES,IC50 (EGFR WT),IC50 (EGFR L858R/T790M/C797S; class symbols),GI50 (Ba/F3-Del19/T790M/C797S; class symbols),GI50 (Ba/F3-L858R/T790M/C797S; class symbols),IC50 (EGFR L858R/T790M/C797S; numeric values),IC50 (A431 (WT)),GI50 (Ba/F3-Del19/T790M/C797S; numeric values),AUC(0-t) [1],Cmax [1],Tmax [1],half-life [1],GI50 (Ba/F3-L858R/T790M/C797S; numeric values)
"CN(C)C1CCC2(CC1)CN(c1ccc(Nc3ncc(Cl)c(Nc4ccccc4P(C)(C)=O)n3)cc1Cl)C2 [Example 10, (2-((5-chloro-2-((3-chloro-4-(7-(dimethylamino)-2-azaspiro[3.5]nonan-2-yl)phenyl)amino)pyrimidin-4-yl)amino)phenyl)dimethylphosphine oxide]",–,–,–,–,0.0007 µM,0.0416 µM,0.0102 µM,0.443 µg·h/mL,0.0351 µg/mL,4 h,9.06 h,0.0247 µM
"Cc1cc(Nc2ncc(Cl)c(Nc3ccccc3P(C)(C)=O)n2)ccc1N1CCC2(CC1)CC(N(C)C)C2 [Example 15, (2-((5-chloro-2-((4-(2-(dimethylamino)-7-azaspiro[3.5]nonan-7-yl)-3-methylphenyl)amino)pyrimidin-4-yl)amino)phenyl)dimethylphosphine oxide]",–,–,–,–,0.0007 µM,0.0276 µM,0.0155 µM,6.94 µg·h/mL,0.575 µg/mL,6 h,4.38 h,0.017 µM
"Cc1cc(Nc2ncc(C)c(Nc3ccccc3P(C)(C)=O)n2)ccc1N1CC2(CC(N)C2)C1 [Example 22, (2-((2-((4-(6-amino-2-azaspiro[3.3]heptan-2-yl)-3-methylphenyl)amino)-5-methylpyrimidin-4-yl)amino)phenyl)dimethylphosphine oxide]",0.057 µM,0.002 to 0.01 µM,> 0.05 µM,> 0.05 µM,–,–,–,–,–,–,–,–
"COc1cnc(Nc2ccc(N3CC4(CC(N)C4)C3)c(C)c2)nc1Nc1ccccc1P(C)(C)=O [Example 23, (2-((2-((4-(6-amino-2-azaspiro[3.3]heptan-2-yl)-3-methylphenyl)amino)-5-methoxypyrimidin-4-yl)amino)phenyl)dimethylphosphine oxide]",0.167 µM,–,> 0.05 µM,> 0.05 µM,0.011 µM,–,–,–,–,–,–,–
"CP(C)(=O)c1ccccc1Nc1nc(Nc2ccc(N3CC4(CC(N)C4)C3)c(Cl)c2)ncc1Cl [Example 26, (2-((2-((4-(6-amino-2-azaspiro[3.3]heptan-2-yl)-3-chlorophenyl)amino)-5-chloropyrimidin-4-yl)amino)phenyl)dimethylphosphine oxide]",0.037 µM,–,0.01 to 0.05 µM,0.01 to 0.05 µM,0.0017 µM,–,–,–,–,–,–,–
"COc1cnc(Nc2ccc(N3CCC4(CC3)CC(N)C4)c(C)c2)nc1Nc1ccccc1P(C)(C)=O [Example 27, (2-((2-((4-(2-amino-7-azaspiro[3.5]nonan-7-yl)-3-methylphenyl)amino)-5-methoxypyrimidin-4-yl)amino)phenyl)dimethylphosphine oxide]",0.127 µM,–,> 0.05 µM,> 0.05 µM,0.0044 µM,–,–,–,–,–,–,–
